Settings: for surface tension liquid-gas: Drop volume; for viscosity / speed of sound / mass density / vapor or sublimation pressure: Liquid; for viscosity: Capillary tube (Ostwald / Ubbelohde) method; for speed of sound: Pulse-echo method; for vapor or sublimation pressure: Ebulliometric method (Recirculating still)

OCC1CCCO1 (stereo not given) [2-tetrahydrofurylmethanol]
Settings	surface tension liquid-gas [mN/m]	vapor or sublimation pressure [kPa]
278.15 K	39.54	–
280.65 K	39.29	–
283.15 K	39.03	–
285.65 K	38.78	–
288.15 K	38.53	–
290.65 K	38.27	–
293.15 K	38.02	–
295.65 K	37.77	–
298.15 K	37.51	–
300.65 K	37.26	–
303.15 K	37.01	0.09
305.65 K	36.75	–
308.15 K	36.5	0.15
310.65 K	36.25	–
313.15 K	35.99	–

Settings	mass density [kg/m3]	speed of sound [m/s]	viscosity [mPa·s]
278.15 K, 101.33 kPa	–	1556.4	10.39
280.65 K, 101.33 kPa	–	1547.6	9.487
283.15 K, 100 kPa	1062.84	–	–
283.15 K, 101.33 kPa	–	1538.6	8.684
283.15 K, 2500 kPa	1064.37	–	–
283.15 K, 5000 kPa	1065.68	–	–
283.15 K, 7500 kPa	1066.97	–	–
283.15 K, 10000 kPa	1068.24	–	–
283.15 K, 20000 kPa	1073.16	–	–
283.15 K, 30000 kPa	1077.84	–	–
283.15 K, 40000 kPa	1082.28	–	–
283.15 K, 50000 kPa	1086.55	–	–
283.15 K, 60000 kPa	1090.57	–	–
285.65 K, 101.33 kPa	–	1529.7	7.971
288.15 K, 100 kPa	1058.59	–	–
288.15 K, 101.33 kPa	–	1520.8	7.335
288.15 K, 2500 kPa	1060.15	–	–
288.15 K, 5000 kPa	1061.47	–	–
288.15 K, 7500 kPa	1062.8	–	–
288.15 K, 10000 kPa	1064.09	–	–
288.15 K, 20000 kPa	1069.11	–	–
288.15 K, 30000 kPa	1073.88	–	–
288.15 K, 40000 kPa	1078.41	–	–
288.15 K, 50000 kPa	1082.72	–	–
288.15 K, 60000 kPa	1086.83	–	–
290.65 K, 101.33 kPa	–	1511.8	6.765
293.15 K, 100 kPa	1054.34	–	–
293.15 K, 101.33 kPa	–	1503	6.254
293.15 K, 2500 kPa	1055.94	–	–
293.15 K, 5000 kPa	1057.3	–	–
293.15 K, 7500 kPa	1058.64	–	–
293.15 K, 10000 kPa	1060	–	–
293.15 K, 20000 kPa	1065.1	–	–
293.15 K, 30000 kPa	1069.97	–	–
293.15 K, 40000 kPa	1074.62	–	–
293.15 K, 50000 kPa	1078.97	–	–
293.15 K, 60000 kPa	1083.18	–	–
295.65 K, 101.33 kPa	–	1494.2	5.795
298.15 K, 100 kPa	1050.06	–	–
298.15 K, 101.33 kPa	–	1485.3	5.381
298.15 K, 2500 kPa	1051.72	–	–
298.15 K, 5000 kPa	1053.11	–	–
298.15 K, 7500 kPa	1054.48	–	–
298.15 K, 10000 kPa	1055.84	–	–
298.15 K, 20000 kPa	1061.08	–	–
298.15 K, 30000 kPa	1066.04	–	–
298.15 K, 40000 kPa	1070.75	–	–
298.15 K, 50000 kPa	1075.22	–	–
298.15 K, 60000 kPa	1079.49	–	–
300.65 K, 101.33 kPa	–	1476.5	5.006
303.15 K, 100 kPa	1045.78	–	–
303.15 K, 101.33 kPa	–	1467.8	4.667
303.15 K, 2500 kPa	1047.47	–	–
303.15 K, 5000 kPa	1048.9	–	–
303.15 K, 7500 kPa	1050.31	–	–
303.15 K, 10000 kPa	1051.69	–	–
303.15 K, 20000 kPa	1057.06	–	–
303.15 K, 30000 kPa	1062.11	–	–
303.15 K, 40000 kPa	1066.94	–	–
303.15 K, 50000 kPa	1071.49	–	–
303.15 K, 60000 kPa	1075.79	–	–
305.65 K, 101.33 kPa	–	1459	4.359
308.15 K, 100 kPa	1041.48	–	–
308.15 K, 101.33 kPa	–	1450.3	4.078
308.15 K, 2500 kPa	1043.19	–	–
308.15 K, 5000 kPa	1044.66	–	–
308.15 K, 7500 kPa	1046.09	–	–
308.15 K, 10000 kPa	1047.48	–	–
308.15 K, 20000 kPa	1052.96	–	–
308.15 K, 30000 kPa	1058.12	–	–
308.15 K, 40000 kPa	1063.05	–	–
308.15 K, 50000 kPa	1067.61	–	–
308.15 K, 60000 kPa	1072.09	–	–
310.65 K, 101.33 kPa	–	1441.6	3.822
313.15 K, 100 kPa	1037.17	–	–
313.15 K, 101.33 kPa	–	1432.8	3.588
313.15 K, 2500 kPa	1038.92	–	–
313.15 K, 5000 kPa	1040.41	–	–

101.33 kPa, Vibrating tube method
Settings	mass density [kg/m3]
278.15 K	1067.07
280.65 K	1064.96
283.15 K	1062.84
285.65 K	1060.72
288.15 K	1058.59
290.65 K	1056.47
293.15 K	1054.34
295.65 K	1052.2
298.15 K	1050.06
300.65 K	1047.92
303.15 K	1045.78
305.65 K	1043.63
308.15 K	1041.48
310.65 K	1039.33
313.15 K	1037.17
